Measurements taken from ChEMBL document CHEMBL5052820, “Organic compounds” (2019).
Where a SMILES comes first, the peptide text is derived from it.

Test: Activation of mouse GPR15 stably expressed in CHO cells expressing Aequorin and Galpha16 measured by luminiscence assay
Assay type: cell-based

EC50: 4.02 µM
SMILES: CC(C)C[C@H](NC(=O)[C@H](CCC(N)=O)NC(=O)[C@@H]1CCCN1C(=O)[C@H](CCCCN)NC(=O)[C@@H](N)CCC(N)=O)C(=O)N[C@@H](Cc1c[nH]c2ccccc12)C(=O)N[C@H](C(=O)N[C@H](C(=O)N1CCC[C@H]1C(=O)NCC(=O)N[C@@H](C)C(=O)N[C@@H](CC(C)C)C(=O)N1CCC[C@H]1C(=O)N[C@@H](CCC(N)=O)C(=O)N[C@H](C(=O)O)C(C)C)C(C)C)C(C)C (H-QKPQLWVVPGALPQV-OH)
